Results published in patent US9751858B2, “3-heteroaroylamino-propionic acid derivatives and their use as pharmaceuticals” (SANOFI, priority 2011, dated 2017).

Molecular target: T1, Recombinant human cathepsin A (Homo sapiens, UniProt P10619)
T1 construct: Recombinant human cathepsin A (residues 29-480, with a C-terminal 10-His tag); 10-His (C); purchased R&D Systems 1049-SE
T1 sequence (P10619 29-326 limits assumed): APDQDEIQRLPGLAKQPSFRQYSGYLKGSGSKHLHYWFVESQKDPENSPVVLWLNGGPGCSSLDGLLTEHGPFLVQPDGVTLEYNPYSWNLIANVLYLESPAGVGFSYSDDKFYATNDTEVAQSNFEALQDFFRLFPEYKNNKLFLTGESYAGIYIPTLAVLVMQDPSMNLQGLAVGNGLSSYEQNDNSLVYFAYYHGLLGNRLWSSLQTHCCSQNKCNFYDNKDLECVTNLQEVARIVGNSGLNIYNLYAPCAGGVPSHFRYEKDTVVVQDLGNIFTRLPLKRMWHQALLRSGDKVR
T1 sequence (P10619 327-480 limits assumed): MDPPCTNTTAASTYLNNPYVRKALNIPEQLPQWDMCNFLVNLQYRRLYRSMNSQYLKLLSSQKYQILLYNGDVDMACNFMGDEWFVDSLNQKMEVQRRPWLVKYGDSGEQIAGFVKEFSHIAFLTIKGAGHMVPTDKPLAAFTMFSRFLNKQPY
Test: Cathepsin A inhibitory activity
Assay type: biochemical
Details: activated recombinant human cathepsin A 833 ng/ml, Bodipy FL-labeled bradykinin 2 μM, pH 5.5, 15 min room temperature
Summary of the method: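 Cathepsin A activated by cathepsin L (15 min, 37 °C, pH 6.0), then preincubated 15 min at room temperature with compound in 25 mM MES pH 5.5, 5 mM DTT. Bodipy FL-bradykinin cleavage ran 15 min at room temperature; substrate and product separated by microfluidic capillary electrophoresis, turnover from peak areas.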

Row | Compound | IC50 [nM]
1 | O=C(O)C[C@H](NC(=O)CCc1nc(-c2ccccc2F)no1)c1cccc(Cl)c1 [Example 74, (S)-3-(3-Chloro-phenyl)-3-{3-[3-(2-fluoro-phenyl)-[1,2,4]oxadiazol-5-yl]-propionylamino}-propionic acid] | 610
2 | Cc1oc(-c2ccccc2F)nc1C(=O)N[C@@H](CC(=O)O)c1ccc(C(F)(F)F)cc1 [Example 93, (S)-3-{[2-(2-Fluoro-phenyl)-5-methyl-oxazole-4-carbonyl]-amino}-3-(4-trifluoromethyl-phenyl)-propionic acid] | 944
3 | Cc1oc(-c2ccccc2)nc1C(=O)N[C@@H](CC(=O)O)c1cccc(Cl)c1Cl [Example 76, (S)-3-(2,3-Dichloro-phenyl)-3-[(5-methyl-2-phenyl-oxazole-4-carbonyl)-amino]-propionic acid] | 590
4 | Cc1oc(-c2ccccc2F)nc1C(=O)N[C@@H](CC(=O)O)c1cccc(Cl)c1Cl [Example 94, (S)-3-(2,3-Dichloro-phenyl)-3-{[2-(2-fluoro-phenyl)-5-methyl-oxazole-4-carbonyl]-amino}-propionic acid] | 514
5 | O=C(O)C[C@H](NC(=O)c1nc(-c2ccccc2)n(-c2ccccc2)n1)c1ccc(Cl)cc1Cl [Example 125, (S)-3-(2,4-Dichloro-phenyl)-3-[(1,5-diphenyl-1H-[1,2,4]triazole-3-carbonyl)-amino]-propionic acid] | 241
6 | O=C(O)C[C@H](NC(=O)c1noc(-c2ccccc2F)n1)c1ccccc1C(F)(F)F [Example 80, (S)-3-{[5-(2-Fluoro-phenyl)-[1,2,4]oxadiazole-3-carbonyl]-amino}-3-(2-trifluoromethyl-phenyl)-propionic acid] | 11900
7 | O=C(O)C[C@H](NC(=O)CCc1nc(-c2ccccc2F)no1)c1ccc(F)cc1 [Example 58, (S)-3-(4-Fluoro-phenyl)-3-{3-[3-(2-fluoro-phenyl)-[1,2,4]oxadiazol-5-yl]-propionylamino}-propionic acid] | > 10000
8 | C[C@@](CC(=O)O)(NC(=O)c1noc(-c2cccc(F)c2F)n1)c1ccccc1 [Example 40, (S)-3-{[5-(2,3-Difluoro-phenyl)-[1,2,4]oxadiazole-3-carbonyl]-amino}-3-phenyl-butyric acid] | 1940
9 | Cc1nc(C(=O)N[C@@H](CC(=O)O)c2ccccc2)nn1-c1ccccc1Cl [Example 33, (S)-3-{[1-(2-Chloro-phenyl)-5-methyl-1H-[1,2,4]triazole-3-carbonyl]-amino}-3-phenyl-propionic acid] | 1030
10 | Cc1oc(-c2ccccc2)nc1C(=O)NC(CC(=O)O)Cc1ccccc1 (stereo not shown) [Example 4, 3-[(5-Methyl-2-phenyl-oxazole-4-carbonyl)-amino]-4-phenyl-butyric acid] | 12900
11 | Cc1ccccc1[C@H](CC(=O)O)NC(=O)c1cc(-c2ccccc2)n(Cc2ccc(F)cc2)n1 [Example 118, (S)-3-{[1-(4-Fluoro-benzyl)-5-phenyl-1H-pyrazole-3-carbonyl]-amino}-3-o-tolyl-propionic acid] | 1540
12 | O=C(O)C[C@H](NC(=O)c1nc(-c2ccccc2)oc1C(F)(F)F)c1ccc(Cl)cc1Cl [Example 123, (S)-3-(2,4-Dichloro-phenyl)-3-[(2-phenyl-5-trifluoromethyl-oxazole-4-carbonyl)-amino]-propionic acid] | 14400
13 | Cc1cccc([C@H](CC(=O)O)NC(=O)CCc2nc(-c3ccccc3F)no2)c1 [Example 50, (S)-3-{3-[3-(2-Fluoro-phenyl)-[1,2,4]oxadiazol-5-yl]-propionylamino}-3-m-tolyl-propionic acid] | > 10000
14 | CCc1nc(C(=O)N[C@@H](CC(=O)O)c2ccccc2C)nn1-c1c(Cl)cccc1Cl [Example 108, (S)-3-{[1-(2,6-Dichloro-phenyl)-5-ethyl-1H-[1,2,4]triazole-3-carbonyl]-amino}-3-o-tolyl-propionic acid] | 350
15 | CC(C)c1oc(-c2ccccc2)nc1C(=O)N[C@@H](CC(=O)O)c1ccccc1 [Example 22, (S)-3-[(5-Isopropyl-2-phenyl-oxazole-4-carbonyl)-amino]-3-phenyl-propionic acid] | 1040
16 | COc1cccc([C@H](CC(=O)O)NC(=O)c2nc(-c3ccccc3)oc2C)c1OC [Example 66, (S)-3-(2,3-Dimethoxy-phenyl)-3-[(5-methyl-2-phenyl-oxazole-4-carbonyl)-amino]-propionic acid] | 12500
17 | Cc1ccc([C@H](CC(=O)O)NC(=O)CCc2nc(-c3ccccc3F)no2)cc1 [Example 52, (S)-3-{3-[3-(2-Fluoro-phenyl)-[1,2,4]oxadiazol-5-yl]-propionylamino}-3-p-tolyl-propionic acid] | > 10000

Row | Compound | IC50 [nM]
18 | O=C(O)C[C@@H](Cc1ccccc1)NC(=O)c1nc(-c2ccccc2F)no1 [Example 11, (R)-3-{[3-(2-Fluoro-phenyl)-[1,2,4]oxadiazole-5-carbonyl]-amino}-4-phenyl-butyric acid] | 4890
19 | Cc1oc(-c2ccccc2)nc1C(=O)N[C@@H](CC(=O)O)c1ccccc1Cl [Example 32, (S)-3-(2-Chloro-phenyl)-3-[(5-methyl-2-phenyl-oxazole-4-carbonyl)-amino]-propionic acid] | 1210
20 | O=C(O)C[C@H](NC(=O)c1noc(-c2ccccc2F)n1)c1ccccc1F [Example 17, (S)-3-(2-Fluoro-phenyl)-3-{[5-(2-fluoro-phenyl)-[1,2,4]oxadiazole-3-carbonyl]-amino}-propionic acid] | > 10000
21 | O=C(O)C[C@H](NC(=O)CCc1nc(-c2ccccc2F)no1)c1ccccc1C(F)(F)F [Example 110, (S)-3-{3-[3-(2-Fluoro-phenyl)-[1,2,4]oxadiazol-5-yl]-propionylamino}-3-(2-trifluoromethyl-phenyl)-propionic acid] | > 10000
22 | Cc1ccccc1[C@H](CC(=O)O)NC(=O)c1cc(-c2ccccc2)on1 [Example 2, (S)-3-[(5-Phenyl-isoxazole-3-carbonyl)-amino]-3-o-tolyl-propionic acid] | 6960
23 | O=C(O)C[C@H](NC(=O)c1nc(-c2ccccc2)n(-c2ccccc2)n1)c1ccccc1 [Example 69, (S)-3-[(1,5-Diphenyl-1H-[1,2,4]triazole-3-carbonyl)-amino]-3-phenyl-propionic acid] | 387
24 | Cc1ccccc1[C@H](CC(=O)O)NC(=O)c1nc(-c2ccccc2F)oc1C [Example 25, (S)-3-{[2-(2-Fluoro-phenyl)-5-methyl-oxazole-4-carbonyl]-amino}-3-o-tolyl-propionic acid] | 311
25 | Cc1oc(-c2ccccc2F)nc1C(=O)N[C@@](C)(CC(=O)O)c1ccccc1 [Example 30, (S)-3-{[2-(2-Fluoro-phenyl)-5-methyl-oxazole-4-carbonyl]-amino}-3-phenyl-butyric acid] | > 10000
26 | COc1cccc([C@H](CC(=O)O)NC(=O)c2nc(-c3ccccc3)n(-c3ccccc3)n2)c1 [Example 102, (S)-3-[(1,5-Diphenyl-1H-[1,2,4]triazole-3-carbonyl)-amino]-3-(3-methoxy-phenyl)-propionic acid] | 440
27 | O=C(O)C[C@H](NC(=O)c1noc(-c2cccc(F)c2F)n1)c1ccccc1 [Example 20, (S)-3-{[5-(2,3-Difluoro-phenyl)-[1,2,4]oxadiazole-3-carbonyl]-amino}-3-phenyl-propionic acid] | 7350
28 | CCc1nc(C(=O)N[C@@H](CC(=O)O)c2ccccc2)nn1-c1ccccc1Cl [Example 56, (S)-3-{[1-(2-Chloro-phenyl)-5-ethyl-1H-[1,2,4]triazole-3-carbonyl]-amino}-3-phenyl-propionic acid] | 1680
29 | Cc1oc(-c2ccccc2)nc1C(=O)NC(CC(=O)O)C1CCCCC1 (stereo not shown) [Example 3, 3-Cyclohexyl-3-[(5-methyl-2-phenyl-oxazole-4-carbonyl)-amino]-propionic acid] | 4970
30 | O=C(O)C[C@H](NC(=O)c1noc(-c2ccccc2F)n1)c1ccc(F)cc1 [Example 19, (S)-3-(4-Fluoro-phenyl)-3-{[5-(2-fluoro-phenyl)-[1,2,4]oxadiazole-3-carbonyl]-amino}-propionic acid] | 8580
31 | O=C(O)C[C@H](NC(=O)c1noc(-c2cccc(F)c2F)n1)c1ccccc1F [Example 43, (S)-3-{[5-(2,3-Difluoro-phenyl)-[1,2,4]oxadiazole-3-carbonyl]-amino}-3-(2-fluoro-phenyl)-propionic acid] | 107
32 | Cc1ccccc1[C@H](CC(=O)O)NC(=O)c1nc(C)n(-c2ccccc2Cl)n1 [Example 57, (S)-3-{[1-(2-Chloro-phenyl)-5-methyl-1H-[1,2,4]triazole-3-carbonyl]-amino}-3-o-tolyl-propionic acid] | 261
33 | O=C(O)C[C@H](NC(=O)c1noc(-c2ccccc2F)n1)c1cccc(C(F)(F)F)c1 [Example 81, (S)-3-{[5-(2-Fluoro-phenyl)-[1,2,4]oxadiazole-3-carbonyl]-amino}-3-(3-trifluoromethyl-phenyl)-propionic acid] | > 10000
34 | O=C(O)C[C@@H](Cc1ccccc1)NC(=O)c1noc(-c2ccccc2F)n1 [Example 13, (R)-3-{[5-(2-Fluoro-phenyl)-[1,2,4]oxadiazole-3-carbonyl]-amino}-4-phenyl-butyric acid] | 316
